The results in this text go back to ChEMBL document CHEMBL1156717, “Synthesis and biological evaluation of pyrazoline analogues with beta-amino acyl group as dipeptidyl peptidase IV inhibitors” (Eur J Med Chem, 2008).

The target in the data set is CYP3A4 (Homo sapiens, UniProt P08684). Kind of data set: Inhibition of CYP3A4 at 10 uM by fluorimetry assay in presence of NADP; values are per cent of control.

Each structure is given as a SMILES string.

Chain of CYP3A4 (P08684 whole entry): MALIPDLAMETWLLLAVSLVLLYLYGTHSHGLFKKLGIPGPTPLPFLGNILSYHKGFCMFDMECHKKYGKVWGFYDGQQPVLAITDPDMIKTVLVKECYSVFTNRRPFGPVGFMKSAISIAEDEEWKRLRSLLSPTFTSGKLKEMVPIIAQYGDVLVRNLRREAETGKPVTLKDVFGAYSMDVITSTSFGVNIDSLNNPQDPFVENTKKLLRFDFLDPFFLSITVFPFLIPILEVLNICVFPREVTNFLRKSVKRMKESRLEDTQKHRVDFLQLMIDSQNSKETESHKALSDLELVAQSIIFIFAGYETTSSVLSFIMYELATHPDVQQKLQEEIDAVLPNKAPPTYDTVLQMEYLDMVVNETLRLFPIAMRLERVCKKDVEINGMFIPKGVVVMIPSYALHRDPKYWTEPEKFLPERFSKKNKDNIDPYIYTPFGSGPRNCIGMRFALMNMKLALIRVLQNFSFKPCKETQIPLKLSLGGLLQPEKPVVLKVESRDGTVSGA

`N[C@@H](CC(=O)N1N=CCC1C(=O)NCc1ccccc1)Cc1cc(F)c(F)cc1F` (stereo not given in full): the residual activity at 10 µM is 18.8%.

For the molecule `N[C@@H](CC(=O)N1N=CCC1C(=O)NCc1ccc(C(=O)O)cc1)Cc1cc(F)c(F)cc1F` (stereo not given in full), the residual activity at 10 µM came to 62%.

With `CCOC(=O)COc1ccc(NC(=O)C2CC=NN2C(=O)C[C@H](N)Cc2cc(F)c(F)cc2F)cc1` (stereo not given in full), the residual activity at 10 µM was found to be 6.9%.

In the case of `N[C@@H](CC(=O)N1N=CCC1C(=O)Nc1ccc(OCC(=O)O)cc1)Cc1cc(F)c(F)cc1F` (stereo not given in full), the residual activity at 10 µM came to 59.3%.

For the molecule `Nc1ccc(CNC(=O)C2CC=NN2C(=O)C[C@H](N)Cc2cc(F)c(F)cc2F)cc1` (stereo not given in full), the residual activity at 10 µM was 4.5%.

The term residual activity denotes the share of the control activity or signal that is left under treatment.
